The text below walks through data of patent publication US20220378936A1, “DELIVERY SYSTEM COMPLEXES COMPRISING A PRECIPITATE OF AN ACTIVE AGENT AND METHODS OF USE” (THE UNIVERSITY OF NORTH CAROLINA AT CHAPEL HILL, priority 2019, published 2022).

In one series the test system is CT26 cells. In words: MTT cytotoxicity assay, CT26. The series is classed as cell-based. As to conditions: Mus musculus; CT26, 24 h incubation. How it is done:
(§1) MTT assay was applied to determine in vitro cytotoxicity. CT26 and Hepa1-6 cells (1×10^4/well) were cultured within 96-well plates, respectively. Following one day incubation, 5-Fu, Nano-dUMP and Nano-FdUMP were added to cells for 24 h. […] IC50 was calculated using the GraphPad Prism software.

A further series has as its system Hepa1-6 cells. In words: MTT cytotoxicity assay, Hepa1-6. The series is classed as cell-based. Particulars: Mus musculus; Hepa1-6, 24 h incubation. The procedure: as §1
A further series deals with cells. As to conditions: free FdUMP; cited from earlier work.
Series [1] is described as follows: Tissue distribution of Nano-Folox in orthotopic CRC mice (IVIS, ICP-MS). The series is classed as in vivo, mouse. As to conditions: 8 h after i.v. administration, 1.5 mg/kg platinum. The procedure:
(§2) The orthotopic CT26-FL3 colorectal tumor model was established as previously described^31.
In addition, — 0.05% (wt) of lipophilic carbocyanine DiD (ThermoFisher) was used to formulate the DiD-labeled Nano-Folox (1.5 mg/kg platinum). Following 8 h i.v. injection of DiD-labeled Nano-Folox, major organs and tumors were collected and analyzed using the IVIS® Kinetics Optical System, with the excitation wavelength at 640 nm and the emission wavelength at 670 nm. The concentration of platinum in major organs and tumors was also measured using ICP-MS^8.

The nature of series [2]: Pharmacokinetics of platinum in orthotopic CRC mice. The series is classed as in vivo, mouse. Particulars: single i.v. injection, one-compartmental model.
Text: as §2

The test system of the next series is CT26-FL3 cells. In words: MTT cytotoxicity assay. The series is classed as cell-based, mouse.
Series [3] in a line: Particle size, zeta potential and morphology of Nano-Folox (Malvern Nano-ZS, TEM). As to conditions: FIG. 2A. The procedure: The measurements of particle size and zeta potential of Nano-Folox were performed using the Malvern Nano-ZS (Malvern Instruments, UK)^59. The morphology of nanoprecipitates and Nano-Folox was analyzed using transmission electron microscopy (TEM). Briefly, 5 μL Nano-Folox were added on 400-mesh carbon-filmed copper grids (Agar Scientific) for 2 min. The samples were stained with 2% (w/w) uranyl acetate before the analysis using the JEM1230 (JEOL) TEM. Alternatively, the morphology of the core was analyzed without the negative staining.

Series [4] in a line: Aqueous solubility of stabilized nanoprecipitates. The series is classed as physicochemical. As to conditions: DOPA-stabilized nanoprecipitates.

Method for CT26-FL3 cells: Cytotoxicity of Nano-Folox was estimated using the MTT assay with 3-(4,5-Dimethylthiazol-2-yl)-2,5-diphenyltetrazolium bromide^60. 10,000 CT26-FL3 cells per well were seeded in 96-well plates and incubated for one day. After incubation, cells were added with OxP and Nano-Folox for 24 h under normal growth conditions. Subsequently, cells were added with 20 μL MTT reagent (5 mg/mL in PBS) and incubated for 4 h at 37° C. 150 μL DMSO were used to dissolve the purple formazan products. The results were measured at 570 nm using a microplate reader. The 50% cell growth inhibition (IC50) was estimated using the GraphPad Prism software.

As to `O=c1[nH]cc(F)c(=O)[nH]1` [5-Fu, 5-fluorouracil], the IC50 in the series with CT26 cells and with Hepa1-6 cells was ~70 µM in each case.

For the molecule `O=c1[nH]c(=O)n([C@H]2C[C@H](O)[C@@H](COP(=O)(O)O)O2)cc1F` [FdUMP, 5-Fluoro-2′-deoxyuridine 5′-monophosphate], the permeability into cells entry in the series on cells is recorded as “impermeable into cells”.

For `O=C1[O][Pt]2([NH][C@@H]3CCCC[C@H]3[NH]2)[O]C1=O` [OxP, oxaliplatin], in series [1], the “liver uptake of platinum” value is recorded as ~35 % ID/g and the “tumor accumulation of platinum” value is on record as ~15 % ID/g. In addition, in series [2], the “half-life (t1/2) of platinum” value was ~8 min. The IC50 in the series on CT26-FL3 cells (24 h incubation, read-out: IC50 (50% cell growth inhibition)) amounted to 24 µM.

As for `Nc1nc(=O)c2c([nH]1)NCC(CNc1ccc(C(=O)NC3CCC(=O)[O][Pt]4([NH]C5CCCCC5[NH]4)[O]C3=O)cc1)N2C=O` (stereo not shown) [Pt(DACH).FnA precipitate, dihydrate(1,2-diaminocyclohexane)platinum(II)-folinic acid], in series [3], the “particle size of the DOPA-stabilized precipitate” value is recorded as ~100 nm. Further, the solubility in water result in series [4] is on record as “poorly soluble in water”.

Take `Nc1nc2c(c(=O)[nH]1)N(C=O)C(CNc1ccc(C(=O)N[C@@H](CCC(=O)O)C(=O)O)cc1)CN2` (stereo partly shown) [FnA, folinic acid]: the “proliferation of CT26-FL3 cells” value with CT26-FL3 cells (FnA alone, data not shown) is recorded as “not inhibited”.
